Source: patent US10316017B2, “COT modulators and methods of use thereof” (Gilead Sciences, Inc., priority 2015, dated 2019)

Legend:
[1] = biological target: T1, human Cot catalytic domain (30-397 amino acids) (Homo sapiens, UniProt P41279); assay: High Throughput Cot Biochemical Assay (KinEASE TR-FRET); conditions: Cot KinEASE TR-FRET (HTRF) biochemical assay, 400 μM ATP; read-out: IC50 HTRF
T1 construct: Purified recombinant human Cot catalytic domain (30-397 amino acids) was purchased from Cama Biosciences; purchased Cama Biosciences (so in the source)
Method in brief: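 First, purified human Cot (aa 30-397) at 5 nM phosphorylates an XL665-labeled STK3 peptide (1 μM) at 400 μM ATP, pH 7.0, 0.1% DMSO. Then a europium-conjugated phospho-specific antibody binds the product, giving the TR-FRET signal.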

[2] = test system: TNFα production in LPS-stimulated human monocytes; assay: Cot Monocyte TNFα Cell Based Assay; conditions: Homo sapiens, Monocyte, TNFα in LPS-stimulated human monocytes; read-out: EC50 TNF
Method in brief: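 5,000 cells/well; cmpd 1 h, 37 °C, 0.5% DMSO final; LPS 50 pg/ml, 4 h, 37 °C; media TNFα by HTRF sandwich (cryptate/XL665), RT overnight; % control vs unstimulated/stimulated wells.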

T1 sequence (P41279 30-397): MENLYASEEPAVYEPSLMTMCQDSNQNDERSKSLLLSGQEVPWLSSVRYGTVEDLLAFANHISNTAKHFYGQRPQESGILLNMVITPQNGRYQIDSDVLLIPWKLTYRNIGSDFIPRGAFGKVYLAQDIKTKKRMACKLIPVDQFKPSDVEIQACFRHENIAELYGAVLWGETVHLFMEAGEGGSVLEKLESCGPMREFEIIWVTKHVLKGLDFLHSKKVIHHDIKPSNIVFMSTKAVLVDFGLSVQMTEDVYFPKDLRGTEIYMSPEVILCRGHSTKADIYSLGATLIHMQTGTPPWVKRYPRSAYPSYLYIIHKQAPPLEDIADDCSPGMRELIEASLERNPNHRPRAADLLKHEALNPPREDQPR

| IC50 [1] [nM] | EC50 [2] [nM] | Structure (SMILES) |
| --- | --- | --- |
| 251 | 2540 | [2H][C@](Nc1cc(Cl)c2ncc(C#N)c(NC3COC3)c2c1)(c1ccc(F)cc1)c1cn(C2CC2)nn1 [Example 201, (S)-8-chloro-6-(((1-cyclopropyl-1H-1,2,3-triazol-4-yl)(4-fluorophenyl)methyl-d)amino)-4-(oxetan-3-ylamino) quinoline-3-carbonitrile] |
| 97 | 1060 | [2H][C@](Nc1cc(Cl)c2ncc(C#N)c(NC3CC(F)(F)C3)c2c1)(c1ccc(F)cc1)c1cn(C2CC2)nn1 [Example 204, (S)-8-chloro-6-(((1-cyclopropyl-1H-1,2,3-triazol-4-yl)(4-fluorophenyl)methyl-d)amino)-4-((3,3-difluorocyclobutyl)amino)quinoline-3-carbonitrile] |
| 38 | 873 | [2H][C@](Nc1cc(Cl)c2ncc(C#N)c(NC3CC(C)(C)C3)c2c1)(c1ccc(F)cc1)c1cn(C2CC2)nn1 [Example 205, (S)-8-chloro-6-(((1-cyclopropyl-1H-1,2,3-triazol-4-yl)(4-fluorophenyl)methyl-d)amino)-4-((3,3-dimethylcyclobutyl)amino)quinoline-3-carbonitrile] |
| 52 | 547 | [2H][C@](Nc1cc(Cl)c2ncc(C#N)c(Nc3cccc(Cl)c3Cl)c2c1)(c1ccc(F)cc1)c1cn(C2CC2)nn1 [Example 206, (S)-8-chloro-6-(((1-cyclopropyl-1H-1,2,3-triazol-4-yl)(4-fluorophenyl)methyl-d)amino)-4-((2,3-dichlorophenyl)amino)quinoline-3-carbonitrile] |
| 24 | 407 | [2H][C@](Nc1cc(Cl)c2ncc(C#N)c(NC(C)(C)C(C)C)c2c1)(c1ccc(F)cc1)c1cn(C2CC2)nn1 [Example 213, (S)-8-chloro-6-(((1-cyclopropyl-1H-1,2,3-triazol-4-yl)(4-fluorophenyl)methyl-d)amino)-4-((2,3-dimethylbutan-2-yl)amino)quinoline-3-carbonitrile] |
| 151 | 4220 | [2H][C@](Nc1cc(Cl)c2ncc(C#N)c(NC3(C)COC3)c2c1)(c1ccc(F)cc1)c1cn(C2CC2)nn1 [Example 214, (S)-8-chloro-6-(((1-cyclopropyl-1H-1,2,3-triazol-4-yl)(4-fluorophenyl)methyl-d)amino)-4-((3-methyloxetan-3-yl)amino)quinoline-3-carbonitrile] |
| 119 | 2880 | [2H][C@](Nc1cc(Cl)c2ncc(C#N)c(NC3CCC3)c2c1)(c1ccc(F)cc1)c1cn(C2CC2)nn1 [Example 215, (S)-8-chloro-4-(cyclobutylamino)-6-(((1-cyclopropyl-1H-1,2,3-triazol-4-yl)(4-fluorophenyl)methyl-d)amino)quinoline-3-carbonitrile] |
| 492 | 5720 | [2H][C@](Nc1cc(Cl)c2ncc(C#N)c(NC3(CC)CC3)c2c1)(c1ccc(F)cc1)c1cn(C2CC2)nn1 [Example 216, (S)-8-chloro-6-(((1-cyclopropyl-1H-1,2,3-triazol-4-yl)(4-fluorophenyl)methyl-d)amino)-4-((1-ethylcyclopropyl)amino)quinoline-3-carbonitrile] |
| 327 | 3580 | [2H][C@](Nc1cc(Cl)c2ncc(C#N)c(NC3(C#N)CC3)c2c1)(c1ccc(F)cc1)c1cn(C2CC2)nn1 [Example 217, (S)-8-chloro-4-((1-cyanocyclopropyl)amino)-6-(((1-cyclopropyl-1H-1,2,3-triazol-4-yl)(4-fluorophenyl)methyl-d)amino)quinoline-3-carbonitrile] |

The remaining lines, values behind:

| Structure (SMILES) | IC50 [1] [nM] | EC50 [2] [nM] |
| --- | --- | --- |
| [2H][C@](Nc1cc(C(F)(F)F)c2ncc(C#N)c(N[C@H](CC)c3ccccc3)c2c1)(c1ccc(F)cc1)c1cn(C2CC2)nn1 [Example 195, 6-(((S)-(1-cyclopropyl-1H-1,2,3-triazol-4-yl)(4-fluorophenyl)methyl-d)amino)-4-(((R)-1-phenylpropyl)amino)-8-(trifluoromethyl) quinoline-3-carbonitrile] | 160 | 1190 |
| [2H][C@](Nc1cc(C(F)(F)F)c2ncc(C#N)c(NCC(C)(C)C)c2c1)(c1ccc(F)cc1)c1cn(C2CC2)nn1 [Example 196, (S)-6-(((1-cyclopropyl-1H-1,2,3-triazol-4-yl)(4-fluorophenyl)methyl-d)amino)-4-(neopentylamino)-8-(trifluoromethyl) quinoline-3-carbonitrile] | 267 | 1510 |
| [2H][C@@](Nc1cc(Cl)c2ncc(C#N)c(NCC(C)(C)C)c2c1)(c1cn(C2CC2)nn1)c1cccc(C#N)c1C [Example 197, (S)-8-chloro-6-(((3-cyano-2-methylphenyl) (1-cyclopropyl-1H-1,2,3-triazol-4-yl)methyl-d)amino)-4-(neopentylamino) quinoline-3-carbonitrile] | 2 | 38 |
| [2H][C@](Nc1cc(Cl)c2ncc(C#N)c(NCC3(C(F)F)CCC3)c2c1)(c1ccc(F)cc1)c1cn(C2CC2)nn1 [Example 198] | 12 | 229 |
| [2H][C@](Nc1cc(Cl)c2ncc(C#N)c(NCC3(C)CC(F)(F)C3)c2c1)(c1ccc(F)cc1)c1cn(C2CC2)nn1 [Example 199, (S)-8-chloro-6-(((1-cyclopropyl-1H-1,2,3-triazol-4-yl)(4-fluorophenyl)methyl-d)amino)-4-(((3,3-difluoro-1-methylcyclobutyl)methyl)amino) quinoline-3-carbonitrile] | 21 | 395 |
| [2H][C@](Nc1cc(Cl)c2ncc(C#N)c(NC3CS(=O)(=O)C3)c2c1)(c1ccc(F)cc1)c1cn(C2CC2)nn1 [Example 200, (S)-8-chloro-6-(((1-cyclopropyl-1H-1,2,3-triazol-4-yl)(4-fluorophenyl)methyl-d)amino)-4-((1,1-dioxidothietan-3-yl)amino)quinoline-3-carbonitrile] | 244 | 7580 |
| [2H][C@](Nc1cc(C#N)c2ncc(C#N)c(N[C@H](CC#N)c3ccccc3)c2c1)(c1ccc(F)cc1)c1cn(C2CC2)nn1 [Example 202, 4-(((R)-2-cyano-1-phenylethyl)amino)-6-(((S)-(1-cyclopropyl-1H-1,2,3-triazol-4-yl)(4-fluorophenyl)methyl-d)amino)quinoline-3,8-dicarbonitrile] | 2 | 44 |
| [2H][C@](Nc1cc(Cl)c2ncc(C#N)c(NCC3(C(F)F)CC3)c2c1)(c1ccc(F)cc1)c1cn(C2CC2)nn1 [Example 203, (S)-8-chloro-6-(((1-cyclopropyl-1H-1,2,3-triazol-4-yl)(4-fluorophenyl)methyl-d)amino)-4-(((1-(difluoromethyl)cyclopropyl)methyl)amino) quinoline-3-carbonitrile] | 38 | 608 |
| CC(C)(C)CNc1c(C#N)cnc2c(Cl)cc(N[C@H](c3cn(C4CC4)nn3)c3ccc(F)cc3Cl)cc12 [Example 207, (S)-8-chloro-6-(((2-chloro-4-fluorophenyl) (1-cyclopropyl-1H-1,2,3-triazol-4-yl)methyl)amino)-4-(neopentylamino) quinoline-3-carbonitrile] | 17 | 305 |
| [2H][C@](Nc1cc(C#N)c2ncc(C#N)c(N[C@H](CC)c3ccccc3)c2c1)(c1ccc(F)cc1)c1cn(C)nn1 [Example 208, 6-(((S)-(4-fluorophenyl)(1-methyl-1H-1,2,3-triazol-4-yl)methyl-d)amino)-4-(((R)-1-phenylpropyl)amino) quinoline-3,8-dicarbonitrile] | 3 | 83 |
| [2H][C@](Nc1cc(C#N)c2ncc(C#N)c(NCC(C)(C)C)c2c1)(c1ccc(F)cc1)c1cn(C)nn1 [Example 209, (S)-6-(((4-fluorophenyl)(1-methyl-1H-1,2,3-triazol-4-yl)methyl-d)amino)-4-(neopentylamino) quinoline-3,8-dicarbonitrile] | 3 | 83 |
| CC[C@@H](Nc1c(C#N)cnc2c(C#N)cc(N[C@H](c3cn(C4CC4)nn3)c3ccccc3Cl)cc12)c1ccccc1 [Example 210, 6-(((S)-(2-chlorophenyl)(1-cyclopropyl-1H-1,2,3-triazol-4-yl)methyl)amino)-4-(((R)-1-phenylpropyl)amino) quinoline-3,8-dicarbonitrile] | 6 | 243 |
| CC(C)(C)CNc1c(C#N)cnc2c(C#N)cc(N[C@H](c3cn(C4CC4)nn3)c3ccccc3Cl)cc12 [Example 211, (S)-6-(((2-chlorophenyl)(1-cyclopropyl-1H-1,2,3-triazol-4-yl)methyl)amino)-4-(neopentylamino) quinoline-3,8-dicarbonitrile] | 6 | 173 |
| [2H][C@](Nc1cc(Cl)c2ncc(C#N)c(NC3(C)CC(F)(F)C3)c2c1)(c1ccc(F)cc1)c1cn(C2CC2)nn1 [Example 212, (S)-8-chloro-6-(((1-cyclopropyl-1H-1,2,3-triazol-4-yl)(4-fluorophenyl)methyl-d)amino)-4-((3,3-difluoro-1-methylcyclobutyl)amino) quinoline-3-carbonitrile] | 169 | 2180 |
| [2H][C@](Nc1cc(Cl)c2ncc(C#N)c(NC3(CC)CCC3)c2c1)(c1ccc(F)cc1)c1cn(C2CC2)nn1 [Example 218, (S)-8-chloro-6-(((1-cyclopropyl-1H-1,2,3-triazol-4-yl)(4-fluorophenyl)methyl-d)amino)-4-((1-ethylcyclobutyl)amino)quinoline-3-carbonitrile] | 432 | 5390 |
